In ChEMBL document CHEMBL1201862, “PubChem BioAssay data set” (2004):
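Interpolation was linear, between the two tested concentrations surrounding the appropriate level; five concentrations were tested over 48 hours in 96-well plates. GI50 marks 50% less growth.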 Active and inactive are the calls of the source. No stated cut-off is given here; in the data, active = GI50 up to about 1.1 µM and inactive = higher.

Key:
Test in all cases: DTP human tumour cell line panel, 48 h
[1] = test system: TK-10
[2] = test system: T47D
[3] = test system: EKVX
[4] = test system: Malme-3M
[5] = test system: RXF 393
[6] = test system: RPMI-8226
[7] = test system: HCC 2998
[8] = test system: NCI-H460
[9] = test system: DU-145
[10] = test system: HL-60
[11] = test system: MCF7
[12] = test system: HOP-62
[13] = test system: MDA-MB-231
[14] = test system: HT-29
[15] = test system: BT-549
[16] = test system: SR
[17] = test system: CCRF-CEM
[18] = test system: SN12C
[19] = test system: OVCAR-8
[20] = test system: PC-3
[21] = test system: NCI-H23
[22] = test system: K562
[23] = test system: OVCAR-3
[24] = test system: U-251
[25] = test system: SW-620
[26] = test system: SF-268
[27] = test system: MDA-N
[28] = test system: SF-295
[29] = test system: NCI/ADR-RES
[30] = test system: MDA-MB-435
[31] = test system: SK-MEL-28
[32] = test system: LOX IMVI
[33] = test system: NCI-H226
[34] = test system: SK-MEL-2
[35] = test system: UACC-257
[36] = test system: MOLT-4
[37] = test system: KM12
[38] = test system: COLO 205
[39] = test system: SNB-19
[40] = test system: HCT-15
[41] = test system: UO-31
[42] = test system: HCT-116
[43] = test system: M14
[44] = test system: OVCAR-4
[45] = test system: 786-0
[46] = test system: UACC-62
[47] = test system: SF-539
[48] = test system: A549
[49] = test system: A498
[50] = test system: IGROV-1
[51] = test system: ACHN
[52] = test system: NCI-H522
[53] = test system: SNB-75
[54] = test system: CAKI-1
[55] = test system: SK-MEL-5
[56] = test system: OVCAR-5
[57] = test system: SK-OV-3

CN1C2CCC1CC(C)(O)C2 (stereo unspecified)
GI50 [1]: > 100 µM (inactive) | GI50 [2]: > 100 µM (inactive) | GI50 [3]: > 100 µM (inactive) | GI50 [4]: > 100 µM (inactive) | GI50 [5]: > 100 µM (inactive) | GI50 [6]: > 100 µM (inactive) | GI50 [7]: > 100 µM (inactive) | GI50 [8]: > 100 µM (inactive) | GI50 [9]: > 100 µM (inactive) | GI50 [10]: > 100 µM (inactive) | GI50 [11]: > 100 µM (inactive) | GI50 [12]: > 100 µM (inactive) | GI50 [13]: > 100 µM (inactive) | GI50 [14]: > 100 µM (inactive) | GI50 [15]: > 100 µM (inactive) | GI50 [16]: > 100 µM (inactive) | GI50 [17]: > 100 µM (inactive) | GI50 [18]: > 100 µM (inactive) | GI50 [19]: > 100 µM (inactive) | GI50 [20]: > 100 µM (inactive) | GI50 [21]: > 100 µM (inactive) | GI50 [22]: > 100 µM (inactive) | GI50 [23]: > 100 µM (inactive) | GI50 [24]: > 100 µM (inactive) | GI50 [25]: > 100 µM (inactive) | GI50 [26]: > 100 µM (inactive) | GI50 [27]: > 100 µM (inactive) | GI50 [28]: > 100 µM (inactive) | GI50 [29]: > 100 µM (inactive) | GI50 [30]: > 100 µM (inactive) | GI50 [31]: > 100 µM (inactive) | GI50 [32]: > 100 µM (inactive) | GI50 [33]: > 100 µM (inactive) | GI50 [34]: > 100 µM (inactive) | GI50 [35]: > 100 µM (inactive) | GI50 [36]: > 100 µM (inactive) | GI50 [37]: > 100 µM (inactive) | GI50 [38]: > 100 µM (inactive) | GI50 [39]: > 100 µM (inactive) | GI50 [40]: > 100 µM | GI50 [41]: > 100 µM (inactive) | GI50 [42]: > 100 µM (inactive) | GI50 [43]: > 100 µM (inactive)

N#C/C(=C\c1cc(Cl)cc(Cl)c1)c1ccccn1
GI50 [1]: 58.5 µM (inactive) | GI50 [3]: 3.46 µM (inactive) | GI50 [4]: > 100 µM (inactive) | GI50 [5]: 5.11 µM (inactive) | GI50 [44]: 53 µM (inactive) | GI50 [6]: > 100 µM (inactive) | GI50 [7]: 31 µM (inactive) | GI50 [8]: 7.83 µM (inactive) | GI50 [9]: 70.6 µM (inactive) | GI50 [10]: 6.27 µM (inactive) | GI50 [45]: 21.5 µM (inactive) | GI50 [46]: 12 µM (inactive) | GI50 [47]: 19.1 µM (inactive) | GI50 [11]: 5.61 µM (inactive) | GI50 [12]: 20 µM (inactive) | GI50 [48]: 18.9 µM (inactive) | GI50 [49]: 757 nM (active) | GI50 [14]: 18.2 µM (inactive) | GI50 [15]: 4.71 µM (inactive) | GI50 [50]: 12.4 µM (inactive) | GI50 [16]: 6.27 µM (inactive) | GI50 [51]: 64.1 µM (inactive) | GI50 [17]: 3.63 µM (inactive) | GI50 [18]: > 100 µM (inactive) | GI50 [19]: 18 µM (inactive) | GI50 [52]: 9.44 µM (inactive) | GI50 [20]: 11.3 µM (inactive) | GI50 [21]: 6.35 µM (inactive) | GI50 [22]: 3.95 µM (inactive) | GI50 [23]: 26.1 µM (inactive) | GI50 [24]: 7.94 µM (inactive) | GI50 [25]: 15.6 µM (inactive) | GI50 [26]: 27.7 µM (inactive) | GI50 [53]: 5.55 µM (inactive) | GI50 [27]: 10.1 µM (inactive) | GI50 [28]: 10.5 µM (inactive) | GI50 [54]: 13.6 µM (inactive) | GI50 [29]: 3.93 µM (inactive) | GI50 [55]: 8.51 µM (inactive) | GI50 [31]: 8.63 µM (inactive) | GI50 [33]: 5.47 µM (inactive) | GI50 [34]: 92 µM (inactive) | GI50 [56]: > 100 µM (inactive) | GI50 [57]: 4.52 µM (inactive) | GI50 [35]: 82.8 µM (inactive) | GI50 [36]: 5.14 µM (inactive) | GI50 [37]: 9.59 µM (inactive) | GI50 [38]: 31.8 µM (inactive) | GI50 [39]: > 100 µM (inactive) | GI50 [40]: 4.75 µM | GI50 [41]: 43.8 µM (inactive) | GI50 [42]: 34.3 µM (inactive) | GI50 [43]: 35.5 µM (inactive)
